PMC4475420 (Chemistry & biology, 2015)

Assays:
Experiment in all cases: PK/LDH coupled NADH oxidation assay, […] nm
Type in all cases: biochemical
OtsA(Sco) = target: T1, OtsA(Sco) (Streptomyces coelicolor, UniProt Q9KXV1); settings: 5 mM MgCl2, Tris-HCl pH 7.5
T1 sequence (Q9KXV1 1-462): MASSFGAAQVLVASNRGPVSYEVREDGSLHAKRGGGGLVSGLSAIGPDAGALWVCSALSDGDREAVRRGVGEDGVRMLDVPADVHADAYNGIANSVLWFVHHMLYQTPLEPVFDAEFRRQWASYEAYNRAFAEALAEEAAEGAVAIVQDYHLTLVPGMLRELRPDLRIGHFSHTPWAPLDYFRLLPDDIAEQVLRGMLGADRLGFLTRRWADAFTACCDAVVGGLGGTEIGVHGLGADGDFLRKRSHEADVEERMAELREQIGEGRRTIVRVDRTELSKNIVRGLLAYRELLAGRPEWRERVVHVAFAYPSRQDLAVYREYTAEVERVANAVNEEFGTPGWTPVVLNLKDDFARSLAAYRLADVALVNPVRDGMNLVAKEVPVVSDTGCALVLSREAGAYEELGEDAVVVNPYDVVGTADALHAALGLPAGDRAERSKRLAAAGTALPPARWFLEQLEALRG

Chimera-2 = settings: 5 mM MgCl2, Tris-HCl pH 7.5
VldE = VldE (Streptomyces hygroscopicus, UniProt Q15JG1); settings: 2 mM validamine 7-phosphate, 5 mM MgCl2, Tris-HCl pH 7.5
Chimera-1 = settings: 5 mM MgCl2, Tris-HCl pH 7.5

Sequence of VldE (Q15JG1 whole entry): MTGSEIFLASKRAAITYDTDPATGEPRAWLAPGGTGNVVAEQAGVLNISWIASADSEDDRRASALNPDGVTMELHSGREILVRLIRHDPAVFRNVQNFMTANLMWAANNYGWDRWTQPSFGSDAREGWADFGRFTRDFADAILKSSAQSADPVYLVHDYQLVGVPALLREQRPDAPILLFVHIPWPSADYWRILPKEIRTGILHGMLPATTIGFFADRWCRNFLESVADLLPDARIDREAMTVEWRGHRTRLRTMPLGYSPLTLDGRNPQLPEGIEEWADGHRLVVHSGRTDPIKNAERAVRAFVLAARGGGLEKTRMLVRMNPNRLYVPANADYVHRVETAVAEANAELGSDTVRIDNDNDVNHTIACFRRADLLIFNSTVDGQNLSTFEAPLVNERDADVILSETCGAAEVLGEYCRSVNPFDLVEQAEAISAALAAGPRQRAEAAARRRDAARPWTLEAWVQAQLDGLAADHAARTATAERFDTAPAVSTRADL

With Nc1ccn([C@@H]2O[C@H](COP(=O)(O)OP(=O)(O)O[C@H]3O[C@H](CO)[C@@H](O)[C@H](O)[C@H]3O)[C@@H](O)[C@H]2O)c(=O)n1 [CDP-glucose] the Km (OtsA(Sco); 2 mM glucose 6-phosphate) was over 4 mM.

For Nc1nc2c(ncn2[C@@H]2O[C@H](COP(=O)(O)OP(=O)(O)O[C@H]3O[C@H](CO)[C@@H](O)[C@H](O)[C@H]3O)[C@@H](O)[C@H]2O)c(=O)[nH]1 [GDP-glucose], the Km (Chimera-2; 2 mM glucose 6-phosphate) was 3.56 ± 0.38 mM, the Km (VldE) was over 2.2 mM and the Km (Chimera-1; 2 mM validamine 7-phosphate) was 1.1 ± 0.07 mM.

Compound Nc1nc2c(ncn2[C@@H]2O[C@H](COP(=O)(O)OP(=O)(O)O[C@H]3C=C(CO)[C@@H](O)[C@H](O)[C@H]3O)[C@@H](O)[C@H]2O)c(=O)[nH]1 [GDP-valienol] has a Km (Chimera-1; 2 mM validamine 7-phosphate) of over 10 mM.

With O=P(O)(O)OC[C@H]1OC(O)[C@H](O)[C@@H](O)[C@@H]1O (stereo partly drawn) [glucose 6-phosphate] the Km (Chimera-2; 2 mM GDP-glucose) was 6.44 ± 0.95 mM.

N[C@H]1C[C@H](COP(=O)(O)O)[C@@H](O)[C@H](O)[C@H]1O [validamine 7-phosphate] showed a Km (Chimera-1; 2 mM GDP-glucose) of 0.975 ± 0.1 mM.

O=P(O)(O)OC[C@H]1C[C@H](O)[C@H](O)[C@@H](O)[C@@H]1O [validol 7-phosphate] was tested, and the Km (OtsA(Sco); 2 mM GDP-glucose) was over 10 mM and the Km (Chimera-2; 2 mM GDP-glucose) was 4.95 ± 0.7 mM.
